Measurements taken from US10758534B2 (Vertex Pharmaceuticals Incorporated, priority 2014, dated 2020).

Target: T1, F508del (Homo sapiens, UniProt P13569, DEL508-508)
T1 construct: expressed in transfected cells
Experiment: Protocol 1: membrane potential optical assay (FLIPR III, voltage sensing dye), identification of potentiator compounds
Assay type: cell-based
Conditions: Table 3, compounds of Table 1
Procedure, shortened: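 NIH 3T3 fibroblasts stably expressing F508del were cultured at 27° C for 24 hrs for temperature correction, then treated with compounds or DMSO and loaded with a voltage-sensing redistribution dye. Forskolin added with a Cl⁻ gradient activated the channel; membrane-potential fluorescence on FLIPR III reported increased gating.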

T1 sequence (P13569 with tags, fused parts or gaps DEL508-508): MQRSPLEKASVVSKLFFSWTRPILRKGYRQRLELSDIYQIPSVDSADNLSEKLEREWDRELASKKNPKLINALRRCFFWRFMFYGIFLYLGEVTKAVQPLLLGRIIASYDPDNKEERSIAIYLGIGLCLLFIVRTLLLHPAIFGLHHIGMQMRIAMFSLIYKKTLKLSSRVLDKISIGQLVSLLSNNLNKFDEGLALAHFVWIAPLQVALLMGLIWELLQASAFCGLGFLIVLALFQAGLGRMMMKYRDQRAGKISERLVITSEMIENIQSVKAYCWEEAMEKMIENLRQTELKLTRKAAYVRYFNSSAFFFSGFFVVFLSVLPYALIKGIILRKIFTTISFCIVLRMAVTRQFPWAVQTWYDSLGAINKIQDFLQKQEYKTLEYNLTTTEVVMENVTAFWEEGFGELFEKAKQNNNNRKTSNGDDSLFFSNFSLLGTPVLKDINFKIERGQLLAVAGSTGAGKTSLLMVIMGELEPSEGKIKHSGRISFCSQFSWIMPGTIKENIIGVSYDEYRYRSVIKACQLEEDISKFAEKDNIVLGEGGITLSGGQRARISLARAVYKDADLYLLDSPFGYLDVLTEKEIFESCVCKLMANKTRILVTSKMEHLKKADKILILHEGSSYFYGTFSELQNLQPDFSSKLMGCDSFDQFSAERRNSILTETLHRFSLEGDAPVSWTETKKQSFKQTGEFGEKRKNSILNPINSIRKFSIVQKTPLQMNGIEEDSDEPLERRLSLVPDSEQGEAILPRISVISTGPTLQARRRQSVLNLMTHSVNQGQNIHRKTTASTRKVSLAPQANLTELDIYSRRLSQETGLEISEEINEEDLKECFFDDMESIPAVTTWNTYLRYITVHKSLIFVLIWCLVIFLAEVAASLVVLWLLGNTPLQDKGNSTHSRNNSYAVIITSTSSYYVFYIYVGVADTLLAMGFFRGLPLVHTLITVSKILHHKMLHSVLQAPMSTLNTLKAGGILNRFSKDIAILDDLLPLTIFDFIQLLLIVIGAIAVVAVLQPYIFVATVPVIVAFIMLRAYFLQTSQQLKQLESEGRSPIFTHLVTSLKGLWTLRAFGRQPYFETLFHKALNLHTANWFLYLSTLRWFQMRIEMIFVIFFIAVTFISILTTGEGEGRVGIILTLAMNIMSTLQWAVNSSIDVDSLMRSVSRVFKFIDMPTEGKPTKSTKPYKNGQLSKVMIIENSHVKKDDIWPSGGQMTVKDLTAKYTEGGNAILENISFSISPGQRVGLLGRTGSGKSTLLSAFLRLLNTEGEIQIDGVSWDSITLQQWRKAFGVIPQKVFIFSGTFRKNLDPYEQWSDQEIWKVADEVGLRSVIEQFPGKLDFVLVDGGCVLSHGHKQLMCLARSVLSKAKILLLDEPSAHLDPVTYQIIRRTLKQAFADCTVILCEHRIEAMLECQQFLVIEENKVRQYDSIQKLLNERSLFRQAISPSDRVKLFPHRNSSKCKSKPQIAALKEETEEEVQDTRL

Compound: CC1CN(c2nc(-c3cnc(OC(C)C)nc3)ccc2C(=O)NS(=O)(=O)c2cccc(N)n2)C(C)(C)C1 (stereo not drawn) [Compound 844, N-[(6-amino-2-pyridyl)sulfonyl]-6-(2-isopropoxypyrimidin-5-yl)-2-(2,2,4-trimethylpyrrolidin-1-yl)pyridine-3-carboxamide]
- EC30: ++ (“++” means between 3 uM and 10 uM)

Compound: CC(C)COc1cc(F)cc(-c2ccc(C(=O)NS(=O)(=O)c3cccc(N)n3)c(N3CCCC34CCC4)n2)c1 [Compound 845, N-[(6-amino-2-pyridyl)sulfonyl]-2-(8-azaspiro[3.4]octan-8-yl)-6-(3-fluoro-5-isobutoxy-phenyl)pyridine-3-carboxamide]
- EC30: +++ (“+++” means <3 uM)

Compound: CC(C)CC(C)Oc1cccc(-c2ccc(C(=O)NS(=O)(=O)c3cccc(N)n3)c(N3CCCC3(C)C)n2)n1 (stereo not drawn) [Compound 846, N-[(6-amino-2-pyridyl)sulfonyl]-6-[6-(1,3-dimethylbutoxy)-2-pyridyl]-2-(2,2-dimethylpyrrolidin-1-yl)pyridine-3-carboxamide]
- EC30: +++ (“+++” means <3 uM)

Compound: CC1CCN(c2nc(-c3ccc(C(C)C)cc3)ccc2C(=O)NS(=O)(=O)c2cccc(N)n2)CC1 [Compound 847, N-[(6-amino-2-pyridyl)sulfonyl]-6-(4-isopropylphenyl)-2-(4-methyl-1-piperidyl)pyridine-3-carboxamide]
- EC30: +++ (“+++” means <3 uM)

Compound: CC(C)CCOc1ccc(-c2ccc(C(=O)NS(=O)(=O)c3cccc(N)n3)c(N3CC(C)CC3(C)C)n2)cn1 (stereo not drawn) [Compound 848, N-[(6-amino-2-pyridyl)sulfonyl]-6-(6-isopentyloxy-3-pyridyl)-2-(2,2,4-trimethylpyrrolidin-1-yl)pyridine-3-carboxamide]
- EC30: +++ (“+++” means <3 uM)

Compound: Cc1ccc(-c2nc(-c3cc(F)cc(OC(C)C)c3)ccc2C(=O)NS(=O)(=O)c2ccn[nH]2)cc1 [Compound 849, 6-(3-fluoro-5-isopropoxy-phenyl)-2-(p-tolyl)-N-(1H-pyrazol-5-ylsulfonyl)pyridine-3-carboxamide]
- EC30: + (“+” means greater than 10 uM)

Compound: CC(C)COc1cc(F)cc(-c2ccc(C(=O)NS(=O)(=O)c3cccc(N)n3)c(N3CC(C)(C)CC3(C)C)n2)c1 [Compound 850, N-[(6-amino-2-pyridyl)sulfonyl]-6-(3-fluoro-5-isobutoxy-phenyl)-2-(2,2,4,4-tetramethylpyrrolidin-1-yl)pyridine-3-carboxamide]
- EC30: +++ (“+++” means <3 uM)

Compound: Cc1cc(OCC(C)C)ncc1-c1ccc(C(=O)NS(=O)(=O)c2cccc(N)n2)c(N2CC(C)CC2(C)C)n1 (stereo not drawn) [Compound 851, N-[(6-amino-2-pyridyl)sulfonyl]-6-(6-isobutoxy-4-methyl-3-pyridyl)-2-(2,2,4-trimethylpyrrolidin-1-yl)pyridine-3-carboxamide]
- EC30: +++ (“+++” means <3 uM)

Compound: C[C@@H]1CN(c2nc(Cl)ccc2C(=O)NS(=O)(=O)c2cccc(N)n2)C(C)(C)C1 [Compound 852, N-[(6-amino-2-pyridyl)sulfonyl]-6-chloro-2-[(4S)-2,2,4-trimethylpyrrolidin-1-yl]pyridine-3-carboxamide]
- EC30: ++ (“++” means between 3 uM and 10 uM)

Compound: Cc1cc(C)c(Oc2nc(C(F)(F)C(F)(F)F)ccc2C(=O)NS(=O)(=O)c2cccc(N)n2)c(C)c1 [Compound 853, N-[(6-amino-2-pyridyl)sulfonyl]-6-(1,1,2,2,2-pentafluoroethyl)-2-(2,4,6-trimethylphenoxy)pyridine-3-carboxamide]
- EC30: +++ (“+++” means <3 uM)

Compound: Cc1cc(C)c(Oc2ncc(C3(C)CC3)cc2C(=O)NS(=O)(=O)c2cccc(N)n2)c(C)c1 [Compound 854, N-[(6-amino-2-pyridyl)sulfonyl]-5-(1-methylcyclopropyl)-2-(2,4,6-trimethylphenoxy)pyridine-3-carboxamide]
- EC30: ++ (“++” means between 3 uM and 10 uM)

Compound: Cc1cc(C)c(CN2Cc3ccccc3CCC2C(=O)NS(=O)(=O)c2ccc[nH]c2=O)c(C)c1 (stereo not drawn) [Compound 855, N-[(2-oxo-1H-pyridin-3-yl)sulfonyl]-2-[(2,4,6-trimethylphenyl)methyl]-1,3,4,5-tetrahydro-2-benzazepine-3-carboxamide]
- EC30: + (“+” means greater than 10 uM)

Compound: Cc1cc(C)c(Oc2nc(-c3ccc4[nH]ncc4c3)ccc2C(=O)NS(=O)(=O)c2cccc(N)n2)c(C)c1 [Compound 856, N-[(6-amino-2-pyridyl)sulfonyl]-6-(1H-indazol-5-yl)-2-(2,4,6-trimethylphenoxy)pyridine-3-carboxamide]
- EC30: ++ (“++” means between 3 uM and 10 uM)

Compound: CC(C)COc1cc(F)cc(-c2ccc(C(=O)NS(=O)(=O)c3cccc(N)n3)c(N3CC4CCCC4C3)n2)c1 (stereo not drawn) [Compound 857, 2-(3,3a,4,5,6,6a-hexahydro-1H-cyclopenta[c]pyrrol-2-yl)-N-[(6-amino-2-pyridyl)sulfonyl]-6-(3-fluoro-5-isobutoxy-phenyl)pyridine-3-carboxamide]
- EC30: +++ (“+++” means <3 uM)

Compound: CC(C)Oc1ccc(-c2ccc(C(=O)NS(=O)(=O)c3cccc(N)n3)c(N3CCCC(OCC4CC4)C3)n2)cn1 (stereo not drawn) [Compound 858, N-[(6-amino-2-pyridyl)sulfonyl]-2-[3-(cyclopropylmethoxy)-1-piperidyl]-6-(6-isopropoxy-3-pyridyl)pyridine-3-carboxamide]
- EC30: ++ (“++” means between 3 uM and 10 uM)

Compound: CC(C)COc1cc(F)cc(-c2ccc(C(=O)NS(=O)(=O)c3cccc(N)n3)c(N3CCCC3c3ccccc3)n2)c1 (stereo not drawn) [Compound 859, N-[(6-amino-2-pyridyl)sulfonyl]-6-(3-fluoro-5-isobutoxy-phenyl)-2-(2-phenylpyrrolidin-1-yl)pyridine-3-carboxamide]
- EC30: +++ (“+++” means <3 uM)

Compound: CCOc1cc(-c2ccc(C(=O)NS(=O)(=O)c3cccc(N)n3)c(Oc3c(C)cc(C)cc3C)n2)ccc1OC [Compound 860, N-[(6-amino-2-pyridyl)sulfonyl]-6-(3-ethoxy-4-methoxy-phenyl)-2-(2,4,6-trimethylphenoxy)pyridine-3-carboxamide]
- EC30: ++ (“++” means between 3 uM and 10 uM)

Compound: COc1ncc(-c2ccc(C(=O)NS(=O)(=O)c3cccnc3OC)c(-c3ccc(C)cc3)n2)cc1C [Compound 861, 6-(6-methoxy-5-methyl-3-pyridyl)-N-[(2-methoxy-3-pyridyl)sulfonyl]-2-(p-tolyl)pyridine-3-carboxamide]
- EC30: ++ (“++” means between 3 uM and 10 uM)

Compound: CCCCCc1ccc(C(=O)NS(=O)(=O)c2cccc(N)n2)c(Oc2c(C)cc(C)cc2C)n1 [Compound 862, N-[(6-amino-2-pyridyl)sulfonyl]-6-pentyl-2-(2,4,6-trimethylphenoxy)pyridine-3-carboxamide]
- EC30: +++ (“+++” means <3 uM)

Compound: COc1ncc(-c2ccc(C(=O)NS(=O)(=O)c3cccc(N)n3)c(N3CCC(C)CC3)n2)cc1C [Compound 863, N-[(6-amino-2-pyridyl)sulfonyl]-6-(6-methoxy-5-methyl-3-pyridyl)-2-(4-methyl-1-piperidyl)pyridine-3-carboxamide]
- EC30: ++ (“++” means between 3 uM and 10 uM)

Compound: CC(C)Oc1ccc(-c2ccc(C(=O)NS(=O)(=O)c3cccc(N)n3)c(N3CCC[C@@H](c4ccccc4)C3)n2)cn1 [Compound 864, N-[(6-amino-2-pyridyl)sulfonyl]-6-(6-isopropoxy-3-pyridyl)-2-[(3S)-3-phenyl-1-piperidyl]pyridine-3-carboxamide]
- EC30: +++ (“+++” means <3 uM)
